Measurements taken from patent US6303630A, “Diarylsulfone non-nucleoside reverse transcriptase inhibitors of human immunodeficiency virus” (University of the Sciences in Philadelphia, priority 2000, dated 2001).
Read-outs that look alike come from different tables or passages of the source.

Legend:
HIV-1 = assay: NCI in vitro anti-HIV drug screen: XTT-formazan assay, protection of T4 lymphocytes (CEM) from HIV-1 cytopathic effects; assay type: cell-based, human immunodeficiency virus (HIV-1); settings: for EC50 / inhibition at 200 µM / inhibition at 2 µM / inhibition at 0.2 µM / inhibition at 0.634 µM / inhibition at 20 µM / inhibition at 63.2 µM / inhibition at 6.33 µM / inhibition at 0.0635 µM: Human immunodeficiency virus 1, CCRF-CEM; for EC50: 144 h, HIV-1 infected CEM cells, 6 days, XTT, approximate values, read-out: EC50 (50% effective concentration against HIV cytopathic effects); for inhibition at 200 µM / activity at 200 µM: dose 2.00 × 10^-4 Molar; for inhibition at 2 µM / activity at 2 µM: dose 2.00 × 10^-6 Molar; for inhibition at 0.2 µM / activity at 0.2 µM: dose 2.00 × 10^-7 Molar; for activity at 2 µM / activity at 0.2 µM / activity at 0.634 µM / activity at 0.0635 µM / activity at 200 µM / activity at 20 µM / activity at 63.2 µM / activity at 6.33 µM: Human immunodeficiency virus 1, Lymphocyte, read-out: Percent of Control, Infected; for TI50 (IC/EC), Therapeutic Index: IC50/EC50
In short: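 Protection from HIV-1 cytopathic killing was read spectrophotometrically via XTT formazan from viable cells after 6-day culture (37°, 5% CO2) of infected CEM cells with compound in half-log10 dilutions; drug-treated uninfected cells served as toxicity controls, AZT run alongside.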

[1] = test system: T4 lymphocytes (CEM cell line); assay: Cell growth / toxicity control in uninfected T4 lymphocytes (CEM), XTT-formazan; assay type: cell-based; settings: Homo sapiens, CCRF-CEM; for IC50: 144 h, approximate values; for activity at 200 µM: dose 2.00 × 10^-4 Molar; for activity at 200 µM / activity at 20 µM / activity at 2 µM / activity at 0.2 µM / activity at 63.2 µM / activity at 6.33 µM / activity at 0.634 µM / activity at 0.0635 µM: read-out: Percent of Control, Uninfected; for activity at 20 µM: dose 2.00 × 10^-5 Molar; for activity at 2 µM: dose 2.00 × 10^-6 Molar; for activity at 0.2 µM: dose 2.00 × 10^-7 Molar; for activity at 63.2 µM: dose 6.32 × 10^-5 Molar; for activity at 6.33 µM: dose 6.33 × 10^-6 Molar; for activity at 0.634 µM: dose 6.34 × 10^-7 Molar; for activity at 0.0635 µM: dose 6.35 × 10^-8 Molar
In short: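 Toxicity control: compound, first dissolved in DMSO and serially diluted half-log10 to a final 1:200 dilution, incubated 6 days at 37° and 5% CO2 with CEM cells lacking HIV-1. Viable cells measured spectrophotometrically via XTT-derived formazan and checked microscopically.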

[2] = read-out: Percent of Protection
[3] = dose 6.34 × 10^-7 Molar, read-out: Percent of Protection
[4] = read-out: Percent of Protection, dose 6.35 × 10^-8 Molar
[5] = read-out: IC50 (50% inhibitory concentration for cell growth), uninfected CEM cells, 6 days, XTT
[6] = dose 2.00 × 10^-5 Molar, read-out: Percent of Protection
[7] = dose 6.32 × 10^-5 Molar, read-out: Percent of Protection
[8] = dose 6.33 × 10^-6 Molar, read-out: Percent of Protection
[9] = dose 6.35 × 10^-8 Molar, read-out: Percent of Protection
[10] = uninfected CEM cells, 6 days, XTT, read-out: IC50 (50% inhibitory concentration for cell growth)
[11] = read-out: Percent of Protection, dose 6.34 × 10^-7 Molar

| SMILES | EC50 (HIV-1) [µM] | inhibition at 200 µM (HIV-1; [2]) [%] | inhibition at 2 µM (HIV-1; [2]) [%] | inhibition at 0.2 µM (HIV-1; [2]) [%] | activity at 2 µM (HIV-1) [%] | activity at 0.2 µM (HIV-1) [%] | activity at 0.634 µM (HIV-1; dose 6.34 × 10^-7 Molar) [%] | activity at 0.0635 µM (HIV-1; dose 6.35 × 10^-8 Molar) [%] | TI50 (IC/EC), Therapeutic Index (HIV-1) | activity at 200 µM [1] [%] | activity at 20 µM [1] [%] | activity at 2 µM [1] [%] | activity at 0.2 µM [1] [%] | activity at 63.2 µM [1] [%] | activity at 6.33 µM [1] [%] | activity at 0.634 µM [1] [%] | activity at 0.0635 µM [1] [%] | inhibition at 20 µM (HIV-1; [6]) [%] | inhibition at 63.2 µM (HIV-1; [7]) [%] | inhibition at 6.33 µM (HIV-1; [8]) [%] | also measured |
| --- | --- | --- | --- | --- | --- | --- | --- | --- | --- | --- | --- | --- | --- | --- | --- | --- | --- | --- | --- | --- | --- |
| Cc1ccc(N(C)S(=O)(=O)c2ccccc2[N+](=O)[O-])cc1 [Compound 31, N-(2-nitrophenylsulfonyl)-N,4-dimethylaniline] | 12.5 | -0.58 | 9.89 | -1.72 | 14.4 | 3.37 | 2.29 | 1.67 | 31.0 × 10^0 | -0.75 | 84.3 | 84.1 | 95.8 | 24.6 | 91.1 | 89.9 | 92.9 | – | – | – | inhibition at 0.634 µM (HIV-1; [3]): -2.85%; inhibition at 20 µM (HIV-1; read-out: Percent of Protection, dose 2.00 × 10^-5 Molar): 73.6%; inhibition at 63.2 µM (HIV-1; read-out: Percent of Protection, dose 6.32 × 10^-5 Molar): 18.4%; inhibition at 6.33 µM (HIV-1; read-out: Percent of Protection, dose 6.33 × 10^-6 Molar): 22%; inhibition at 0.0635 µM (HIV-1; [4]): -3.51%; IC50 [1, 5]: 388 µM |
| CNc1ccc(S(=O)(=O)c2ccccc2[N+](=O)[O-])cc1Cl [Compound 77, 4-(2-nitrophenylsulfonyl)-2-chloro-N-methylaniline] | 0.119 | 100 | 100 | 82 | 100 | 82.9 | 90.3 | 16.7 | > 1.69 × 10^+3 | 111 | 89.7 | 110 | 106 | 95.2 | 100 | 107 | 111 | 96.7 | 106 | 99.5 | inhibition at 0.634 µM (HIV-1; [3]): 89.8%; inhibition at 0.0635 µM (HIV-1; [9]): 12.3%; activity at 200 µM (HIV-1): 100%; activity at 20 µM (HIV-1; dose 2.00 × 10^-5 Molar): 96.8%; activity at 63.2 µM (HIV-1; dose 6.32 × 10^-5 Molar): 106%; activity at 6.33 µM (HIV-1; dose 6.33 × 10^-6 Molar): 99.5%; IC50 [1, 10]: > 200 µM |
| CCNc1ccccc1S(=O)(=O)c1ccccc1[N+](=O)[O-] [Compound 81, 2-(2-NITROPHENYLSULFONYL)-N-ETHYLANILINE] | 2.32 | 17.2 | 46.1 | 1.5 | 63.3 | 33 | 53.3 | 36.1 | 1.39 × 10^+1 | 13.7 | 68.6 | 89 | 70.7 | 23.6 | 83.1 | 89.4 | 93.7 | 53.6 | -15 | 81.4 | inhibition at 0.634 µM (HIV-1; [3]): 31.3%; inhibition at 0.0635 µM (HIV-1; [9]): 5.99%; activity at 200 µM (HIV-1): 43.7%; activity at 20 µM (HIV-1; dose 2.00 × 10^-5 Molar): 68.5%; activity at 63.2 µM (HIV-1; dose 6.32 × 10^-5 Molar): 21.8%; activity at 6.33 µM (HIV-1; dose 6.33 × 10^-6 Molar): 87.3%; IC50 [1, 10]: 32.2 µM |
| CNc1ccc(Cl)cc1S(=O)(=O)c1ccccc1 [Compound 57, 2-phenylsulfonyl-4-chloro-N-methylaniline] | 9.84 | 22 | 2.94 | 0.57 | 9.73 | 7.53 | 5.9 | 5.77 | > 2.03 × 10^-1 | 75.9 | 87.2 | 91.5 | 92 | 97.2 | 89.6 | 86.4 | 91.9 | 94 | 91.9 | 22.9 | inhibition at 0.0635 µM (HIV-1; [9]): -1.32%; inhibition at 0.634 µM (HIV-1; [11]): -1.18%; activity at 200 µM (HIV-1): 27.5%; activity at 20 µM (HIV-1; dose 2.00 × 10^-5 Molar): 94.4%; activity at 63.2 µM (HIV-1; dose 6.32 × 10^-5 Molar): 92.5%; activity at 6.33 µM (HIV-1; dose 6.33 × 10^-6 Molar): 28.3%; IC50 [1, 10]: > 200 µM |
| O=S(=O)(c1ccccc1)c1cccc2c1NCCC2 [Compound 45, 8-(phenylsulfonyl)-1,2,3,4-tetrahydroquinoline] | 14 | 42.2 | 2.49 | 0.38 | 4.44 | 2.37 | 2.22 | 0.49 | 1.43 × 10^+1 | 62.1 | 101 | 93.3 | 84.2 | 74.2 | 94.3 | 89.7 | 87.2 | 67 | 59.8 | 13.3 | inhibition at 0.634 µM (HIV-1; [11]): 0.22%; inhibition at 0.0635 µM (HIV-1; [4]): -1.54%; activity at 200 µM (HIV-1): 43.3%; activity at 20 µM (HIV-1; dose 2.00 × 10^-5 Molar): 67.7%; activity at 63.2 µM (HIV-1; dose 6.32 × 10^-5 Molar): 60.6%; activity at 6.33 µM (HIV-1; dose 6.33 × 10^-6 Molar): 15.1%; IC50 [1, 5]: > 200 µM |
